# Test results: PubChem BioAssay (NCI)
#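 At the GI50, growth is halved. TGI: concentration producing complete growth inhibition.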
# What was measured:
# Assay in all cases: growth of human tumour cells (NCI), 384-well format
# [1] = test system: 786-0 renal
# [2] = test system: A498 renal
# [3] = test system: A549 NSCLC
# [4] = test system: ACHN renal
# [5] = test system: BT-549 breast
# [6] = test system: CAKI-1 renal
# [7] = test system: CCRF-CEM leukemia
# [8] = test system: COLO 205 colon
# [9] = test system: DU-145 prostate
# [10] = test system: EKVX NSCLC
# [11] = test system: HCC-2998 colon
# [12] = test system: HCT-116 colon
# [13] = test system: HCT-15 colon
# [14] = test system: HL-60(TB) leukemia
# [15] = test system: HOP-62 NSCLC
# [16] = test system: HOP-92 NSCLC
# [17] = test system: HS 578T breast
# [18] = test system: HT29 colon
# [19] = test system: IGROV1 ovarian
# [20] = test system: K-562 leukemia
# [21] = test system: KM12 colon
# [22] = test system: LOX IMVI melanoma
# [23] = test system: M14 melanoma
# [24] = test system: MALME-3M melanoma
# [25] = test system: MCF7 breast
# [26] = test system: MDA-MB-231 breast
# [27] = test system: MDA-MB-435 melanoma
# [28] = test system: MDA-MB-468 breast
# [29] = test system: MOLT-4 leukemia
# [30] = test system: NCI-H226 lung
# [31] = test system: NCI-H23 lung
# [32] = test system: NCI-H322M lung
# [33] = test system: NCI-H460 NSCLC
# [34] = test system: NCI-H522 lung
# [35] = test system: NCI/ADR-RES ovarian
# [36] = test system: OVCAR-3 ovarian
# [37] = test system: OVCAR-4 ovarian
# [38] = test system: OVCAR-5 ovarian
# [39] = test system: PC-3 prostate
# [40] = test system: RPMI-8226 leukemia
# [41] = test system: RXF 393 renal
# [42] = test system: SF-268 CNS
# [43] = test system: SF-295 CNS
# [44] = test system: SF-539 CNS
# [45] = test system: SK-MEL-2 melanoma
# [46] = test system: SK-MEL-28 melanoma
# [47] = test system: SK-MEL-5 melanoma
# [48] = test system: SK-OV-3 ovarian
# [49] = test system: SN12C renal
# [50] = test system: SNB-19 CNS
# [51] = test system: SNB-75 CNS
# [52] = test system: SR leukemia
# [53] = test system: SW-620 colon
# [54] = test system: T-47D breast
# [55] = test system: TK-10 renal
# [56] = test system: U251 glioblastoma
# [57] = test system: UACC-257 melanoma
# [58] = test system: UACC-62 melanoma
# [59] = test system: UO-31 renal
# [60] = test system: OVCAR-8 ovarian
compound,measurement,setting,value
CC(C)=CCC/C(C)=C/CC/C(C)=C/CSc1ccccc1C(=O)O,GI50,[1],> 100 µM
same,TGI,[1],> 100 µM
same,GI50,[2],> 100 µM
same,TGI,[2],> 100 µM
same,GI50,[3],90.1 µM
same,TGI,[3],> 100 µM
same,GI50,[4],> 100 µM
same,TGI,[4],> 100 µM
same,GI50,[5],> 100 µM
same,TGI,[5],> 100 µM
same,GI50,[6],> 100 µM
same,TGI,[6],> 100 µM
same,GI50,[7],45.2 µM
same,TGI,[7],> 100 µM
same,GI50,[8],> 100 µM
same,TGI,[8],> 100 µM
same,GI50,[9],> 100 µM
same,TGI,[9],> 100 µM
same,GI50,[10],> 100 µM
same,TGI,[10],> 100 µM
same,GI50,[11],> 100 µM
same,TGI,[11],> 100 µM
same,GI50,[12],> 100 µM
same,TGI,[12],> 100 µM
same,GI50,[13],73.3 µM
same,TGI,[13],> 100 µM
same,GI50,[14],83.7 µM
same,TGI,[14],> 100 µM
same,GI50,[15],> 100 µM
same,TGI,[15],> 100 µM
same,GI50,[16],> 100 µM
same,TGI,[16],> 100 µM
same,GI50,[17],> 100 µM
same,TGI,[17],> 100 µM
same,GI50,[18],> 100 µM
same,TGI,[18],> 100 µM
same,GI50,[19],> 100 µM
same,TGI,[19],> 100 µM
same,GI50,[20],> 100 µM
same,TGI,[20],> 100 µM
same,GI50,[21],> 100 µM
same,TGI,[21],> 100 µM
same,GI50,[22],> 100 µM
same,TGI,[22],> 100 µM
same,GI50,[23],> 100 µM
same,TGI,[23],> 100 µM
same,GI50,[24],> 100 µM
same,TGI,[24],> 100 µM
same,GI50,[25],> 100 µM
same,TGI,[25],> 100 µM
same,GI50,[26],> 100 µM
same,TGI,[26],> 100 µM
same,GI50,[27],> 100 µM
same,TGI,[27],> 100 µM
same,GI50,[28],> 100 µM
same,TGI,[28],> 100 µM
same,GI50,[29],51.3 µM
same,TGI,[29],> 100 µM
same,GI50,[30],> 100 µM
same,TGI,[30],> 100 µM
same,GI50,[31],> 100 µM
same,TGI,[31],> 100 µM
same,GI50,[32],> 100 µM
same,TGI,[32],> 100 µM
same,GI50,[33],> 100 µM
same,TGI,[33],> 100 µM
same,GI50,[34],16.2 µM
same,TGI,[34],43.6 µM
same,GI50,[35],> 100 µM
same,TGI,[35],> 100 µM
same,GI50,[36],> 100 µM
same,TGI,[36],> 100 µM
same,GI50,[37],> 100 µM
same,TGI,[37],> 100 µM
same,GI50,[38],> 100 µM
same,TGI,[38],> 100 µM
same,GI50,[39],> 100 µM
same,TGI,[39],> 100 µM
same,GI50,[40],47.9 µM
same,TGI,[40],> 100 µM
same,GI50,[41],70.4 µM
same,TGI,[41],> 100 µM
same,GI50,[42],> 100 µM
same,TGI,[42],> 100 µM
same,GI50,[43],> 100 µM
same,TGI,[43],> 100 µM
same,GI50,[44],> 100 µM
same,TGI,[44],> 100 µM
same,GI50,[45],> 100 µM
same,TGI,[45],> 100 µM
same,GI50,[46],> 100 µM
same,TGI,[46],> 100 µM
same,GI50,[47],> 100 µM
same,TGI,[47],> 100 µM
same,GI50,[48],> 100 µM
same,TGI,[48],> 100 µM
same,GI50,[49],> 100 µM
same,TGI,[49],> 100 µM
same,GI50,[50],> 100 µM
same,TGI,[50],> 100 µM
same,GI50,[51],> 100 µM
same,TGI,[51],> 100 µM
same,GI50,[52],54.2 µM
same,TGI,[52],> 100 µM
same,GI50,[53],> 100 µM
same,TGI,[53],> 100 µM
same,GI50,[54],> 100 µM
same,TGI,[54],> 100 µM
same,GI50,[55],> 100 µM
same,TGI,[55],> 100 µM
same,GI50,[56],> 100 µM
same,TGI,[56],> 100 µM
same,GI50,[57],> 100 µM
same,TGI,[57],> 100 µM
same,GI50,[58],> 100 µM
same,TGI,[58],> 100 µM
same,GI50,[59],> 100 µM
same,TGI,[59],> 100 µM
COCc1cc(C(=O)Nc2cc([C@H]3CC[C@@H](OC(=O)NC(C)C)C3)[nH]n2)n(C)n1,GI50,[1],5.05 µM
same,TGI,[1],64.2 µM
same,GI50,[2],1.52 µM
same,TGI,[2],> 100 µM
same,GI50,[3],3.03 µM
same,TGI,[3],> 100 µM
same,GI50,[4],3.45 µM
same,TGI,[4],> 100 µM
same,GI50,[5],3.38 µM
same,TGI,[5],20.3 µM
same,GI50,[6],3.99 µM
same,TGI,[6],> 100 µM
same,GI50,[7],2.81 µM
same,TGI,[7],7.24 µM
same,GI50,[8],0.975 µM
same,TGI,[8],19 µM
same,GI50,[9],3.14 µM
same,TGI,[9],> 100 µM
same,GI50,[10],14.9 µM
same,TGI,[10],48.8 µM
same,GI50,[11],5.15 µM
same,TGI,[11],25.9 µM
same,GI50,[13],6.45 µM
same,TGI,[13],37.4 µM
same,GI50,[14],1.52 µM
same,TGI,[14],2.89 µM
same,GI50,[16],14 µM
same,TGI,[16],> 100 µM
same,GI50,[17],11.4 µM
same,TGI,[17],29.5 µM
same,GI50,[18],12.4 µM
same,TGI,[18],> 100 µM
same,GI50,[19],4.47 µM
same,TGI,[19],> 100 µM
same,GI50,[20],13.8 µM
same,TGI,[20],65.2 µM
same,GI50,[21],0.571 µM
same,TGI,[21],17.2 µM
same,GI50,[22],3.12 µM
same,TGI,[22],18.9 µM
same,GI50,[23],4.82 µM
same,TGI,[23],18.8 µM
same,GI50,[24],12.3 µM
same,TGI,[24],26.1 µM
same,GI50,[25],2.66 µM
same,TGI,[25],13.4 µM
same,GI50,[26],9.08 µM
same,TGI,[26],> 100 µM
same,GI50,[27],12.5 µM
same,TGI,[27],84.8 µM
same,GI50,[28],13.9 µM
same,TGI,[28],27 µM
same,GI50,[29],4.36 µM
same,TGI,[29],12.5 µM
same,GI50,[30],2.85 µM
same,TGI,[30],51.6 µM
same,GI50,[31],2.48 µM
same,TGI,[31],10.1 µM
same,GI50,[32],3.8 µM
same,TGI,[32],13 µM
same,GI50,[33],3.07 µM
same,TGI,[33],14.3 µM
same,GI50,[34],15.1 µM
same,TGI,[34],31.6 µM
same,GI50,[35],> 100 µM
same,TGI,[35],> 100 µM
same,GI50,[36],5.24 µM
same,TGI,[36],28.8 µM
same,GI50,[37],18.3 µM
same,TGI,[37],52.7 µM
same,GI50,[38],3.12 µM
same,TGI,[38],9.17 µM
same,GI50,[60],4.64 µM
same,TGI,[60],36.2 µM
same,GI50,[39],6.59 µM
same,TGI,[39],> 100 µM
same,GI50,[40],1.84 µM
same,TGI,[40],6.78 µM
same,GI50,[41],5.42 µM
same,TGI,[41],23.4 µM
same,GI50,[42],2.37 µM
same,TGI,[42],15.4 µM
same,GI50,[43],10.3 µM
same,TGI,[43],79.3 µM
same,GI50,[44],3.97 µM
same,TGI,[44],19.6 µM
same,GI50,[46],10.3 µM
same,TGI,[46],22.8 µM
same,GI50,[47],0.762 µM
same,TGI,[47],13.9 µM
same,GI50,[48],8.29 µM
same,TGI,[48],90.1 µM
same,GI50,[49],4.38 µM
same,TGI,[49],23.9 µM
same,GI50,[50],5.67 µM
same,TGI,[50],> 100 µM
same,GI50,[51],8.98 µM
same,TGI,[51],22.3 µM
same,GI50,[52],0.557 µM
same,TGI,[52],1.86 µM
same,GI50,[53],2.45 µM
same,TGI,[53],65.4 µM
same,GI50,[54],5.58 µM
same,TGI,[54],> 100 µM
same,GI50,[55],14.8 µM
same,TGI,[55],> 100 µM
same,GI50,[57],6.8 µM
same,TGI,[57],25.3 µM
same,GI50,[58],2.98 µM
same,TGI,[58],12.8 µM
same,GI50,[59],31.5 µM
same,TGI,[59],> 100 µM
